# According to patent US20040253251A1 (priority 2003, published 2004):
# Read-outs that look alike come from different tables or passages of the source.
# Key:
# [1] = tested on: ovarian tumor cells injected subcutaneously; conditions: 31st day from tumor inoculation; 30 consecutive days; AY/NY 0.3 ml oral once per day, CTX 30 mg/kg/day s.c.
# Method: (§1) The biological composition comprising 10^8 cells per ml of activated and conditioned yeast cells of the strain Saccharomyces cerevisiae Hansen strain AS2.502 was prepared by the methods described in Section 5.1 and subsections therein
# The mice injected with tumor cells were kept for 5 days and then were divided into 4 experimental groups of ten mice per group and one control group. The four experimental groups were triplicated (i.e., using a total of 120 mice in the experimental groups).
# The mice received the biological compositions, untreated yeast cells, CTX or saline on the same day as the tumor cells were transplanted. The mice in group CK2 also started receiving saline on the same day as the other four groups. The biological compositions, untreated yeast cells and saline were administered orally by a feeding tube and the CTX by subcutaneous injection for 30 consecutive days. […] The weight of the mice and the weight of the tumor were determined by standard techniques.
# [2] = tested on: ovarian tumor cells injected subcutaneously; conditions: for Number of live animals remaining in the groups after 30 days of treatment: 30 mice per group
# Method: The survival time of mice after tumor injection and treatment was studied.
# as §1
# The animals were prepared in a similar manner as described in Section 8.1.
# The mice injected with tumor cells were kept for 5 days and then were divided into 4 experimental groups of ten mice per group and one control group. The four experimental groups were triplicated (i.e., using a total of 120 mice in the experimental groups). In group 2AY, the mice received 0.3 ml of the biological composition once per day. In group 2NY, the mice received 0.3 ml of the untreated yeast cells once per day. In group 2CTX, the mice were injected subcutaneously with […] of cyclophosphamide (CTX) per kg body weight per day. In group 2CK1, the mice received 0.3 ml of physiological saline once per day.
# The mice received the biological compositions, untreated yeast cells, CTX or saline on the same day as the tumor cells were transplanted. Mice in group 2CK2 also started receiving saline on the same day as the other four groups. The biological compositions, untreated yeast cells and saline were administered orally by a feeding tube and the CTX by subcutaneous injection for 30 consecutive days. The mice were observed over 6 months from the day of tumor inoculation and survival was recorded. The weight of the mice and the weight of the tumor were determined by standard techniques.
# [3] = tested on: human ovarian cancer cells transplanted into mice; experiment: Tumor growth in mouse model of human ovarian cancer (orthotopic transplant), Example 6; type: in vivo; conditions: 31st day from tumor inoculation; 30 consecutive days; AY/NY 0.3 ml oral once per day, TSPA 1.5 mg/kg/day i.v.
# From the text: Numerous animal studies have reported the use of orthotopic transplant technique in female mouse models to study the treating of ovarian cancer. See, for example, Animals for Experiments and Experimental Techniques, Chinese Medical Publisher, 1997. The use of orthotopic transplant technique has been highly successful in the development of mouse models of human ovarian cancer.
# The human ovarian cancer sample is carefully selected before, during, and after surgery in order to ensure transplant occurred at the equivalent position in the mouse. The ovarian cancer sample is obtained from patients who have not received any radiation, chemotherapy, or immune enhancement treatment.
# The mouse were starved for 24 hours before the surgery. The animals were generally anaesthetized. The barbiturates was first diluted in saline and then injected at 0.3 to 0.4 ml per animal, or 30 mg per kg body weight, into the abdomen of the mice. Under sterile conditions, a 1 cm long opening in the body cavity was cut along the right rib of the mice for engraftment of the tumor. About 10^6 units of tumor cells (about 2 mg tumor pieces per ml culture medium) were transplanted. Afterwards, the opening was sutured and the mice were put back into the cage. The animals were allowed to grow for three to five weeks or when the tumor grows to about 1 to 2 cm^3 in size. […]
# [4] = tested on: human ovarian cancer cells transplanted into mice; experiment: Survival over 6 months in mouse model of human ovarian cancer, Example 7; type: in vivo; conditions: for Number of live animals remaining in the groups after 30 days of treatment: 30 mice per group
# Method: In group 2TSPA, the mice were injected intravenously with 1.5 mg of thiotepa (TSPA) per kg body weight per day.
# [5] = 2 months after cessation of treatment
# [6] = 3 months after cessation of treatment
# [7] = 4 months after cessation of treatment
# [8] = 5 months after cessation of treatment
# [9] = 6 months after cessation of treatment
# [10] = mice that survived the 6 months observation
smiles,measurement,setting,value
"O=P1(N(CCCl)CCCl)NCCCO1 (centres unmarked) [CTX, cyclophosphamide]",mean weight of mice and standard deviation,[1],20 ± 2.3 g
same,mean weight of tumor nodules and standard deviation,[1],3.3 ± 1.4 g
same,Number of live animals remaining in the groups after 30 days of treatment,"[2]; 1 month after cessation of treatment, 2AY/2NY 0.3 ml oral per day, 2CTX 305 mg/kg/day s.c. (30 mg)",30
same,Number of live animals remaining in the groups after 30 days of treatment,[2]; [5],30
same,Number of live animals remaining in the groups after 30 days of treatment,[2]; [6],23
same,Number of live animals remaining in the groups after 30 days of treatment,[2]; [7],14
same,Number of live animals remaining in the groups after 30 days of treatment,[2]; [8],9
same,Number of live animals remaining in the groups after 30 days of treatment,[2]; [9],0
same,survival outcome during the experiment,"[2]; in words, 6 months observation, 2NY 0.3 ml per day, 2CTX 30 mg/kg per day",all died
same,mean weight of mice and standard deviation,[2]; [10],all animals dead
same,mean weight of tumor nodules and standard deviation,[2]; [10],all animals dead
"S=P(N1CC1)(N1CC1)N1CC1 [TSPA, thiotepa]",mean weight of mice and standard deviation,[3],21 ± 2.1 g
same,mean weight of tumor nodules and standard deviation,[3],3.1 ± 0.8 mg
same,Number of live animals remaining in the groups after 30 days of treatment,"[4]; 0 month after cessation of treatment, 2AY/2NY 0.3 ml oral per day, 2TSPA 1.5 mg/kg/day i.v.",30
same,Number of live animals remaining in the groups after 30 days of treatment,[4]; 1 month after cessation of treatment,24
same,Number of live animals remaining in the groups after 30 days of treatment,[4]; [5],7
same,Number of live animals remaining in the groups after 30 days of treatment,[4]; [6],2
same,Number of live animals remaining in the groups after 30 days of treatment,[4]; [7],0
same,Number of live animals remaining in the groups after 30 days of treatment,[4]; [8],0
same,Number of live animals remaining in the groups after 30 days of treatment,[4]; [9],0
same,survival outcome during the experiment,"[4]; in words, 6 months observation, 2NY 0.3 ml per day, 2TSPA 1.5 of thiotepa per kg per day",all died
same,mean weight of mice and standard deviation,[4]; [10],all animals dead
same,mean weight of tumor nodules and standard deviation,[4]; [10],all animals dead
